Results on 24 molecules are retold here after patent publication US8889878B2, “Haloalky-substituted amides as insecticides and acaricides” (Bayer CropScience AG, priority 2009, dated 2014).

The nature of data set [1]: logP by HPLC on reverse-phase column (EEC Directive 79/831 Annex V.A8). The format is physicochemical. As to conditions: for chromatographic logP: reverse-phase C18 HPLC column, pH 2.7, HPLC. Here is the method: The logP values reported in the above Tables and Preparation Examples were determined according to EEC Directive 79/831 Annex V.A8 by HPLC (High Performance Liquid Chromatography) on a reverse-phase column (C18). Temperature 43° C.

The subject of data set [2] is mustard beetle (Phaedon cochleariae). The data set is described as follows: Phaedon test (PHAECO spray treatment), Example 16. The format is in vivo. The note with it: china cabbage leaf discs sprayed, after the desired time; for efficacy in % / pest or weed control at 500 g/ha: application rate 500 g/ha. The procedure: (§1) Phaedon Test (PHAECO Spray Treatment)
(§2) • Solvent: 78.0 parts by weight of acetone • 1.5 parts by weight of dimethylformamide • Emulsifier: 0.5 part by weight of alkylaryl polyglycol ether
To prepare an appropriate active ingredient formulation, 1 part by weight of active ingredient is mixed with the stated amounts of solvent and emulsifier, and the concentrate is diluted with emulsifier-containing water to the desired concentration. […]
After the desired time, the efficacy in % is determined. 100% means that all beetle larvae were killed; 0% means that no beetle larvae were killed.

For data set [3] the test system is unchanged. The data set is described as follows: Phaedon test (PHAECO spray treatment), Example 7. As to conditions: application rate 20 g/ha, china cabbage leaf discs sprayed, after 7 days. In kind it is in vivo. The procedure:
as §1, §2
To prepare an active ingredient formulation, 1 part by weight of active ingredient is mixed with the stated amounts of solvent and emulsifier, and the concentrate is diluted with emulsifier-containing water to the desired concentration. Leaf discs from china cabbage (Brassica pekinensis) are sprayed with an active ingredient formulation of the desired concentration and, after drying, populated with larvae of the mustard beetle (Phaedon cochleariae).
After 7 days, the efficacy in % is determined. 100% means that all beetle larvae were killed; 0% means that no beetle larvae were killed.

Data set [4] concerns red spider mite (Tetranychus urticae). The data set is described as follows: Tetranychus test, OP-resistant (TETRUR spray treatment), Example 8. The format is in vivo. As to conditions: application rate 20 g/ha, common bean leaf discs sprayed, after 6 days. The procedure:
Tetranychus Test, OP-resistant (TETRUR Spray Treatment)
as §2
To prepare an active ingredient formulation, 1 part by weight of active ingredient is mixed with the stated amounts of solvent and emulsifier, and the concentrate is diluted with emulsifier-containing water to the desired concentration.
Leaf discs from the common bean (Phaseolus vulgaris) infested by all stages of the red spider mite (Tetranychus urticae) are sprayed with an active ingredient formulation of the desired concentration.
After 6 days, the efficacy in % is determined. 100% means that all spider mites were killed; 0% means that no spider mites were killed.

Data set [5] relates to green peach aphid (Myzus persicae). The data set is described as follows: Myzus test (MYZUPE spray treatment), Example 17. In kind it is in vivo. The note with it: application rate 500 g/ha, china cabbage leaf discs sprayed, after 6 days. In a few lines:
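Chinese cabbage leaf discs infested with all aphid stages were sprayed with compound formulated in acetone/dimethylformamide plus alkylaryl polyglycol ether emulsifier, diluted in emulsifier-containing water. Mortality read after 6 days as % efficacy (100% all killed, 0% none killed).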

In the next data set the test system is Boophilus microplus. The data set is described as follows: Boophilus microplus test (BOOPMI injection), Example 11. The format is in vivo. As to conditions: application rate 20 μg/animal, injected into abdomen, after 7 days. The procedure: Boophilus microplus Test (BOOPMI Injection) • Solvent: dimethyl sulphoxide To prepare an appropriate active ingredient formulation, 10 mg of active ingredient are mixed with 0.5 ml of solvent and the concentrate is diluted with solvent to the desired concentration. The active ingredient solution is injected into the abdomen (Boophilus microplus), and the animals are transferred to dishes and stored in a climate-controlled room. The efficacy was assessed by the number of fertile eggs laid. After 7 days, the efficacy in % is determined. 100% means that none of the ticks has laid any fertile eggs.

Data set [6] relates to armyworm (Spodoptera frugiperda). Kind of data set: Spodoptera frugiperda test (SPODFR spray treatment), Example 15. The format is in vivo. The note with it: application rate 500 g/ha, maize leaf discs sprayed, after 7 days; for pest or weed control at 500 g/ha: Spodoptera frugiperda, foliar, 168 h, read-out: efficacy in %. The method in brief: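 Maize leaf discs sprayed with active ingredient in acetone/DMF with alkylaryl polyglycol ether emulsifier, diluted in water, then populated with caterpillars after drying. Efficacy in % after 7 days: 100% all caterpillars killed, 0% none.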

Setting [7] is: HPLC, C18 reverse phase, 43° C., acidic range pH 2.7, calibration with alkan-2-ones.
Setting [8] is: C18 reverse phase, 43° C., acidic range pH 2.7, calibration with alkan-2-ones.
[9] abbreviates: Phaedon cochleariae, foliar, read-out: efficacy in %.

Take `O=C(/C=C/c1ccc(C(=O)NC2CC2)c(C(F)(F)F)c1)NC(c1cncc(C(F)(F)F)c1)C(F)(F)F` (stereo not shown) [Ib-3]: the logP entry in data set [1] (setting [7]) was “HPLC-MS: logP = 2.83; mass (m/z):”. The molecule also had an efficacy in % in data set [2] of 83%.

Consider `CC(C)NC(=O)c1ccc(/C=C/C(=O)NC(c2cccc(C(F)(F)F)c2)C(F)(F)F)cc1C(F)(F)F` (stereo not shown) [Ia-62], for which the efficacy in % in data set [3] stood at 100%; in data set [4] it was 100%; in data set [5], 80%. The logP result in data set [1] (HPLC-MS) was “HPLC-MS: logP = 3.41; mass”.

Regarding `O=C(NC(c1cccc(C(F)(F)F)c1)C(F)(F)F)c1cc2cc(Cl)c(C(=O)NC3CC3)cc2[nH]1` (stereo not shown) [Ic-18], the efficacy in % in data set [3] is 100%; in data set [4], 80%. Moreover, the “efficacy in % (fertile eggs laid)” value in the data set with Boophilus microplus is 100%. In addition, the logP entry in data set [1] (setting [7]) was “HPLC-MS: logP = 2.98; mass”.

Regarding `O=C(/C=C/c1ccc(C(=O)NC2COC2)c(C(F)(F)F)c1)NC(c1cccc(C(F)(F)F)c1)C(F)(F)F` (stereo not shown) [Ia-59], the efficacy in % in data set [3] is 100%; in data set [4] it was 100%; in data set [5], 100%; in data set [6] it was 83%. In data set [1] (HPLC-MS), the logP entry is reported as “HPLC MS: logP = 2.89; mass”.

Consider `CC(F)(F)CNC(=O)c1ccc(/C=C/C(=O)NC(c2cccc(C(F)(F)F)c2)C(F)(F)F)cc1C(F)(F)F` (stereo not shown) [Ia-79], for which the efficacy in % turned out to be 100% in data set [3], 90% in data set [4] and 90% in data set [5]. In data set [1] (HPLC-MS), the logP result is on record as “HPLC-MS: logP = 3.65; mass”.

`N#Cc1cc(/C=C/C(=O)NC(c2ccc(Cl)c(Cl)c2)C(F)(F)F)ccc1-n1cncn1` (stereo not shown) [Ia-17] gave a chromatographic logP in data set [1] (setting [8]) of 3.22. Also, the pest or weed control at 500 g/ha in data set [6] and in data set [2] (setting [9]) was 100% in each case.

With `O=C(/C=C/c1ccc(C(=O)NC2(c3ccccn3)CC2)c(C(F)(F)F)c1)NC(c1cccc(C(F)(F)F)c1)C(F)(F)F` (stereo not shown) [Ia-70], the figures for the efficacy in % in data set [3], in data set [4] and in data set [6] were 100%, 100% and 83%, respectively. For the same molecule, the logP entry in data set [1] (HPLC-MS) is reported as “HPLC-MS: logP = 3.23; mass”.

In the case of `N#Cc1ccc2[nH]c(C(=O)NC(c3cc(Cl)cc(C(F)(F)F)c3)C(F)(F)F)cc2c1` (stereo not shown) [Ic-11], the logP result in data set [1] (setting [7]) is listed as “HPLC-MS: logP = 3.90; mass”. Further, in data set [2], the efficacy in % amounted to 83%.

Regarding `O=C(/C=C/c1ccc(C(=O)NC2CCC2)c(C(F)(F)F)c1)NC(c1cccc(C(F)(F)F)c1)C(F)(F)F` (stereo not shown) [Ia-61], the efficacy in % in data set [3] is 100%; in data set [4] it was 100%; in data set [5] it was 80%. Besides, the logP result in data set [1] (HPLC-MS) is given as “HPLC-MS: logP = 3.58; mass”.

As to `CC(=O)NCc1ccc2oc(C(=O)NC(c3cccc(C(F)(F)F)c3)C(F)(F)F)cc2c1` (stereo not shown) [Ic-10, 5-(Acetamidomethyl)-N-{2,2,2-trifluoro-1-[3-(trifluoromethyl)phenyl]ethyl}-1-benzofuran-2-carboxamide], in data set [1] (setting [8]), the chromatographic logP was determined as 2.8. Moreover, in data set [2] (setting [9]), the pest or weed control at 500 g/ha amounted to 100%.

With `CC(F)(F)C(NC(=O)/C=C/c1ccc(C(=O)NC2CC2)c(Cl)c1)c1cccc(C(F)(F)F)c1` (stereo not shown) [Id-1, 2-Chloro-N-cyclopropyl-4-[(1E)-3-({2,2-difluoro-1-[3-(trifluoromethyl)phenyl]propyl}amino)-3-oxoprop-1-en-1-yl]benzamide], the chromatographic logP in data set [1] (setting [8]) was 3.04. Further, in data set [2] (setting [9]), the pest or weed control at 500 g/ha was 100%.

As to `Cc1cc(/C=C/C(=O)NC(c2cccc(C(F)(F)F)c2)C(F)(F)F)ccc1C(=O)O` (stereo not shown) [Ia-27], the logP result in data set [1] (HPLC-MS) is on record as “HPLC-MS: logP = 3.14; mass”. Also, the efficacy in % in data set [2] was 83%.

As for `CC(NC(=O)c1ccc(/C=C/C(=O)NC(c2cccc(C(F)(F)F)c2)C(F)(F)F)cc1C(F)(F)F)C1CC1` (stereo not shown) [Ia-56], the efficacy in % is 100% in data set [3], 100% in data set [4] and 83% in data set [6]. For the same molecule, the logP entry in data set [1] (HPLC-MS) was “HPLC-MS: logP = 3.77; mass”.

For the molecule `O=C(/C=C/c1ccc(C(=O)NCC2CC2)c(C(F)(F)F)c1)NC(c1cccc(C(F)(F)F)c1)C(F)(F)F` (stereo not shown) [Ia-78], the efficacy in % in data set [3] is 100%; in data set [4], 90%; in data set [5], 90%. Also, in data set [1] (HPLC-MS), the logP entry is “HPLC-MS: logP = 3.52; mass”.

With `C#CCNC(=O)c1ccc(/C=C/C(=O)NC(c2cccc(C(F)(F)F)c2)C(F)(F)F)cc1C(F)(F)F` (stereo not shown) [Ia-63], the efficacy in % in data set [3] is on record as 100%; in data set [4], 80%; in data set [5], 90%. Also, the logP entry in data set [1] (HPLC-MS) was “HPLC-MS: logP = 3.36; mass”.

Take `O=C(NC1CC1)c1ccc2cc(C(=O)NC(c3cccc(C(F)(F)F)c3)C(F)(F)F)oc2c1` (stereo not shown) [Ic-19, N^6-Cyclopropyl-N^2-{2,2,2-trifluoro-1-[3-(trifluoromethyl)phenyl]ethyl}-1-benzofuran-2,6-dicarboxamide]: the chromatographic logP in data set [1] (setting [8]) turned out to be 3.25. Besides, in data set [2] (setting [9]), the pest or weed control at 500 g/ha worked out at 100%.

For the molecule `O=C(NC(c1cccc(C(F)(F)F)c1)C(F)(F)F)c1cc2cc(SC(F)(F)F)ccc2o1` (stereo not shown) [Ic-2], the logP entry in data set [1] (setting [7]) was “HPLC-MS: logP = 4.94; mass”. This molecule also came in with an efficacy in % in data set [2] of 83%.

As to `COC(C)(C)NC(=O)c1ccc(/C=C/C(=O)NC(c2cccc(C(F)(F)F)c2)C(F)(F)F)cc1C(F)(F)F` (stereo not shown) [Ia-55], the efficacy in % in data set [4] is listed as 100%; in data set [5] it was 90%; in data set [6] it was 83%. In addition, the logP result in data set [1] (HPLC-MS) is on record as “HPLC-MS: logP = 3.37; mass”.

In data set [1] (setting [8]), `O=C(/C=C/c1ccc(C(=O)NC2CS(=O)(=O)C2)c(Cl)c1)NC(c1cccc(C(F)(F)F)c1)C(F)(F)F` (stereo not shown) [Ia-166, 2-Chloro-N-(1,1-dioxidothietan-3-yl)-4-[(1E)-3-oxo-3-({2,2,2-trifluoro-1-[3-(trifluoromethyl)phenyl]ethyl}amino)prop-1-en-1-yl]benzamide] showed a chromatographic logP of 2.93. Further, the pest or weed control at 100 g/ha in data set [2] (Phaedon cochleariae, foliar, application rate 100 g/ha, read-out: efficacy in %) was determined as 100%.

For `O=C(/C=C/c1ccc(C(=O)NC2CCOCC2)c(C(F)(F)F)c1)NC(c1cccc(C(F)(F)F)c1)C(F)(F)F` (stereo not shown) [Ia-69], the efficacy in % in data set [3] was 100%; in data set [4], 100%; in data set [5], 90%. Moreover, the logP entry in data set [1] (HPLC-MS) is “HPLC-MS: logP = 3.12; mass”.

Regarding `O=C(/C=C/c1ccc(C(=O)NCCOCC(F)(F)F)c(C(F)(F)F)c1)NC(c1cccc(C(F)(F)F)c1)C(F)(F)F` (stereo not shown) [Ia-47], the efficacy in % stood at 100% in data set [3], 90% in data set [4] and 83% in data set [6]. For the same molecule, the logP result in data set [1] (HPLC-MS) is reported as “HPLC-MS: logP = 3.58; mass”.

`N#Cc1ccc2oc(C(=O)NC(c3cccc(C(F)(F)F)c3)C(F)(F)F)cc2c1` (stereo not shown) [Ic-1, 5-Cyano-N-{2,2,2-trifluoro-1-[3-(trifluoromethyl)phenyl]ethyl}-1-benzofuran-2-carboxamide]: the chromatographic logP in data set [1] (setting [8]) amounted to 3.63. The pest or weed control at 500 g/ha in data set [6] and in data set [2] (setting [9]) was 100% in each case.

In the case of `O=C(/C=C/c1ccc(NC(=O)C2CC2)cc1)NC(c1cc(Cl)cc(Cl)c1)C(F)(F)F` (stereo not shown) [Ia-1], in data set [1] (HPLC-MS), the logP result is “HPLC-MS: logP = 3.77; mass”. In addition, in data set [2], the efficacy in % is recorded as 83%.

Turning to `CC(NC(=O)c1ccc(/C=C/C(=O)NC(c2cccc(C(F)(F)F)c2)C(F)(F)F)cc1Br)C1CC1` (stereo not shown) [Ia-93], the efficacy in % in data set [3] was found to be 100%; in data set [4], 90%. Besides, the logP result in data set [1] (HPLC-MS) is “HPLC-MS: logP = 3.42 mass”.

One may read the chromatographic logP as lipophilicity estimated from chromatographic retention. Low readings indicate lower lipophilicity, high ones higher lipophilicity.
